The source of these data is patent US20230090742A1, “AMINOPYRIMIDINYLAMINOBENZONITRILE DERIVATIVES AS NEK2 INHIBITORS” (Sumitomo Pharma Oncology, Inc., priority 2020, published 2023).

Molecules are shown by their SMILES. pIC50: −log10 of the molar value.

For one assay, the target named is T1, NEK2 (Homo sapiens, UniProt P51955).
T1 construct: expressed in transfected cells; host or cells: HEK293
T1 sequence (P51955 1-445): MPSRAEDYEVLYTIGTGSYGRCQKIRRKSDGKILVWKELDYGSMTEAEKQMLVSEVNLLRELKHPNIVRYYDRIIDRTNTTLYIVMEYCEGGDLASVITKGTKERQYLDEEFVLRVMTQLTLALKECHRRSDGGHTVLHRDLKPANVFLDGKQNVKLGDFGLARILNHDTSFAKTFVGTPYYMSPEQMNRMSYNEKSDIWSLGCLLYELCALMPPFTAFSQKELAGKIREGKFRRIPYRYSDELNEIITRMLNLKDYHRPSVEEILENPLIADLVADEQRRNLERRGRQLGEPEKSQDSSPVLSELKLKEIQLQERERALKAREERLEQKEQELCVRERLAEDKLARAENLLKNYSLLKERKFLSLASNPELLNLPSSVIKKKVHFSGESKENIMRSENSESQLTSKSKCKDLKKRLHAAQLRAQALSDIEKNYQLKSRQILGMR
The assay can be described thus: NanoBRET Target Engagement Intracellular Kinase Assay for NEK2 in transfected HEK293 cells. The format is cell-based. To be noted: NEK2 target engagement, read-out: NanoBRET IC50. Here is the method: In this example, the compounds described herein were tested for their inhibitory activity against NEK2 using a model of in vivo activity by the NanoBRET™ Target Engagement Intracellular Kinase Assay (Reaction Biology Corp.). The assay was performed according to the manufacturer's protocol, as detailed below.
HEK293 cells were cultivated (70-80% confluence) prior to the assay. The sample was trypsinized and HEK293 cells were collected.
To prepare lipid: DNA complexes, a 10 μg/ml solution of DNA in Opti-MEM without serum was prepared that consisted of the following ratios of carrier DNA and DNA encoding NanoLuc® fusion: 9.0 μg/ml of Transfection Carrier DNA, 1.0 μg/ml of NanoLuc fusion vector DNA and 1 ml of Opti-MEM without phenol red. The solution was mixed thoroughly. 30 μl of FuGENE HD Transfection Reagent was added into each milliliter of DNA mixture to form lipid: DNA complex. The sample was mixed by inversion 10 times and then incubated at ambient temperature for 20 minutes to allow complexes to form. In a sterile, conical tube, 1 part of lipid:DNA complex was mixed with 20 parts of HEK293 cells in suspension. The resulting sample was mixed gently by inversion 5 times. The cell and lipid: DNA complex was dispensed into a sterile tissue culture dish and incubated for 22-24 hours.
Each test compound is delivered from the compound source plate to the wells of 384-well white NBS plate by Echo 550.
Step 3. Preparation of Cells with NanoBRET™ Tracer K5 Reagent:
The medium was removed from the dish with the transfected HEK293 cells via aspiration, trypsinized and cells were allowed to dissociate from the dish. Trypsin was neutralized using medium containing serum and centrifuged at 200×g for 5 minutes to pellet the cells. The cell density was adjusted to 2×10^5 cells/ml in Opti-MEM without phenol red.
The Complete 20× NanoBRET™ Tracer K5 Reagent with Tracer Dilution Buffer was prepared according to the manufacturer's instructions. One part of Complete 20× NanoBRET™ Tracer Reagent was added to 20 parts of cells in the tube. The sample was mixed gently by inversion 10 times. Next, the cell suspension was dispensed into white, 384-well NBS plates with a final tracer K5 concentration of 2 μM. The plate was incubated at 37° C., 5% CO2 for 1 hour. A separate set of samples without tracer were prepared for background correction steps.
The plate was removed from the incubator and equilibrated to room temperature for 15 minutes. The 3× Complete Substrate plus Inhibitor Solution in Assay Medium (Opti-MEMR I Reduced Serum Medium, no phenol red) was prepared just before measuring BRET. The 3× Complete Substrate plus Inhibitor Solution was added to each well of the 384-well plate and incubated for 2-3 minutes at room temperature. The donor emission wavelength (460 nm) and acceptor emission wavelength (600 nm) were measured using the Envision 2104 plate reader.
To generate raw BRET ratio values, the acceptor emission value (600 nm) was divided by the donor emission value (460 nm) for each sample. To correct for background, the BRET ratio in the absence of tracer (average of no-tracer control samples) was subtracted from the BRET ratio of each sample.
BRET Ratio=[(Acceptor sample÷Donor sample)−(Acceptor no-tracer control÷Donor no-tracer control)]
Background: In BRET a luciferase serves as donor, and the signal depends on an acceptor being close.

The test system of another assay is EZH2 expression. Kind of assay: Flow cytometry analysis for EZH2 expression in SW480 cells. The class given is cell-based. To be noted: Homo sapiens, 24 hours treatment, 0-1000 nM, haploid and diploid cells, read-out: dose dependent decrease in EZH2 expression, IC50. Here is the method: Reagents. MDA-MB-231 (Breast adenocarcinoma, triple negative breast cancer) and SW480 (colorectal adenocarcinoma, stem-like subtype) cells were purchased from ATCC and cultured as per manufacturer's instruction. Thymidine (Sigma, T9250) stock solution (100 mM) was prepared in PBS. 2′-Deoxycytidine (Sigma, D897) stock solution (240 mM) was prepared in distilled H2O. Nocodazole (Selleck Chemicals, S2775) stock solution (5 mg/mL) was made in dimethyl sulfoxide (DMSO). FxCycle Far Red stain (F10348) for cell cycle analysis was purchased from Thermo Fisher Scientific.
Antibodies. Polyclonal antibodies to phosphorylated-Ser55 Hec1 (PA5-85846; 1:1000) were purchased from ThermoFisher Scientific, and Phospho-Thr320 PP1α (2581S; 1:1000) and Total PP1α (2582S; 1:1000) were purchased from Cell Signaling Technologies. Monoclonal antibodies to Phospho-Ser10 Histone H3 (53348S; 1:1000), Total Histone H3 (14269; 1:5000), and EZH2-FITC (30233, 1:50) antibodies were purchased from Cell Signaling Technologies; Total Hec1 (ab109496; 1:10000) was purchased from Abcam; and Total NEK2 (sc-55601; 1:200) and GAPDH (sc-365062; 1:1000-2000) antibodies were purchased from Santa Cruz Technologies.
Flow Cytometry Analysis. […] A minimum of 100,000 events were analyzed in each sample, and the results were evaluated using FlowJo software. […]

On to `N#Cc1c(Nc2nc(Nc3ccc(N4CCNCC4)cc3)ncc2Cl)cccc1OCc1ccccc1F` [Compound 16, 2-((5-chloro-2-((4-(piperazin-1-yl)phenyl)amino)pyrimidin-4-yl)amino)-6-((2-fluorobenzyl)oxy)benzonitrile], for which the values for the pIC50 at NEK2 and in the assay on EZH2 expression were at least 7.30 and 6.73, respectively.
